ChEMBL document CHEMBL1201862, “PubChem BioAssay data set” (2004)
Calls of active or inactive are those of the source.

Key:
INS1 = assay: INS-1E survival protection against cytokine death – cell-based, luminescence, retest, dose response (AID 449756); format: functional; settings: Rattus norvegicus;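 also: cell death triggered by IL-1 beta plus TNF-alpha plus IFN-gamma mixture; protective hits raise ATP signal compared with cytokine alone wells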
[1] = non-specific 3'UTR reporter inhibition in Clone20-Shn3RL – cell-based, Renilla luciferase, cherry-picked, counter-screen for Shn3 inhibitor project, dose response (AID 624133); format: functional
[2] = MIN6 cell viability loss – mouse insulinoma, cytotoxicity control, dose response (AID 2122); format: functional;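 also: confirmatory high-throughput counterscreen run to flag cytotoxic compounds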
[3] = loss of viability in HepG2 cells – cell-based, CellTiter-Glo, cherry-picked, cytotoxicity control for Shn3 inhibitor project, dose response (AID 624134); format: functional
[4] = molecular target: COUP transcription factor 2 (Homo sapiens, UniProt P24468); assay: Luminescence-based cell-based high throughput dose response assay to identify inhibitors of COUP-TFII (NR2F2).; format: functional;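 also: HEK293 cells transiently cotransfected with COUP-TFII expression vector and reporter; luciferase reporter luminescence driven by COUP-TFII from the pX2-168 reporter plasmid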
Sequence of COUP transcription factor 2 (P24468 whole entry): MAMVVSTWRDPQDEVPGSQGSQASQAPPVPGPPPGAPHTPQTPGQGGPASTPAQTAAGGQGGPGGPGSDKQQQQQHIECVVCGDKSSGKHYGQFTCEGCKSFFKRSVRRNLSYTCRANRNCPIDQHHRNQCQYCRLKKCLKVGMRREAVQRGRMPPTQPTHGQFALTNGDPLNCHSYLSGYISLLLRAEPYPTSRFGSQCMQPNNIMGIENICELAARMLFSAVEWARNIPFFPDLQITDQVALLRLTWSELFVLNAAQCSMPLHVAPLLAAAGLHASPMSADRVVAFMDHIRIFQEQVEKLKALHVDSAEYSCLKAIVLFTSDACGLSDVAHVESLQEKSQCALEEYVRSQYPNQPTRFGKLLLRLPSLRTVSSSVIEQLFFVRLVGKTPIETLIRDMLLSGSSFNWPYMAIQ

[5] = decrease of insulin promoter-GFP reporter – imaging, high-content screening, mouse beta cells (AID 1628); format: functional; settings: MIN6
[6] = HEK-293T viability loss after treatment – luminescence, T-cell screen hits, cytotoxicity control for TCR NF-kB inhibitor project, dose response (AID 489026); format: functional, cell-based;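 also: cells exposed to compound about 14 hours before the viability readout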
[7] = reduction of Shn3 3'UTR-driven luciferase in osteoblasts – cell-based, Clone20 osteoblasts, firefly luciferase, cherry-picked, dose response (AID 624132); format: functional;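 also: firefly luciferase luminescence from reporter carrying the Shn3 3'UTR in osteoblasts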
[8] = molecular target: T1, Oxysterols receptor LXR-beta (Homo sapiens, UniProt P55055); format: functional, cell-based;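 also: Cell-based luminescence dose-response assay of agonist activity at LXR, run as a confirmatory counterscreen to a daf-12 agonist screen; HEK293 cells with Gal4-LXR fusion and GAL4-driven luciferase reporter; agonist potency from rising luciferase signal of a Gal4-LXR reporter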
T1 sequence (P55055 whole entry): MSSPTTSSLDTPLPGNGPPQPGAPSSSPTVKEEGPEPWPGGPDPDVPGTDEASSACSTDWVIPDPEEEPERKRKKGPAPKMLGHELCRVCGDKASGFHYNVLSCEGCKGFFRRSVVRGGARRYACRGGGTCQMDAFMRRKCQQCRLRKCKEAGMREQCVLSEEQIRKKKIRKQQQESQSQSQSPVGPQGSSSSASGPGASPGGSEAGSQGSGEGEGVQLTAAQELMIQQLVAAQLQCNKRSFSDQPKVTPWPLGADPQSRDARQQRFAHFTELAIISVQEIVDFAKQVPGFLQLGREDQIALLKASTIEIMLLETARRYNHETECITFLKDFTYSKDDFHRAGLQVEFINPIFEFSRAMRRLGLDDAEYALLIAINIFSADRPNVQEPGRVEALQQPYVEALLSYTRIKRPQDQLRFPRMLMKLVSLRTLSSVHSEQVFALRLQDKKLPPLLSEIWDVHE

[9] = Trypanosoma cruzi growth suppression in host cells – NIH3T3 host cells, beta-gal luminescence, confirmation (AID 2044); format: functional, cell-based;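 also: intracellular parasites grown in NIH/3T3 mouse fibroblasts as host cells; luminescent beta-galactosidase reporter signal from transgenic T. cruzi replicating inside host cells; inhibitors lower the luminescence signal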
[10] = NIH3T3 cell viability loss – ATP luminescence, mouse fibroblasts, counter-screen, dose response (AID 2010); format: functional, cell-based;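 also: cells exposed to compound for about 90 hours before reading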
[11] = reduced cellular PGC1a acetyl-lysine signal – cell-based, cherry-picked samples, dose response (AID 720514); format: functional;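 also: potency may reflect raised or lowered acetylation signal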
Paired box protein Pax-8 = Paired box protein Pax-8 (Homo sapiens, UniProt Q06710); assay: PAX8 transcriptional activity inhibition in RMG-I – RMG-I cells, luciferase, cherry-pick, dose response (AID 687027); format: functional, cell-based;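 also: luciferase reporter driven by Pax8 target thyroperoxidase promoter measured by SteadyGlo luminescence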
Sequence of Paired box protein Pax-8 (Q06710 whole entry): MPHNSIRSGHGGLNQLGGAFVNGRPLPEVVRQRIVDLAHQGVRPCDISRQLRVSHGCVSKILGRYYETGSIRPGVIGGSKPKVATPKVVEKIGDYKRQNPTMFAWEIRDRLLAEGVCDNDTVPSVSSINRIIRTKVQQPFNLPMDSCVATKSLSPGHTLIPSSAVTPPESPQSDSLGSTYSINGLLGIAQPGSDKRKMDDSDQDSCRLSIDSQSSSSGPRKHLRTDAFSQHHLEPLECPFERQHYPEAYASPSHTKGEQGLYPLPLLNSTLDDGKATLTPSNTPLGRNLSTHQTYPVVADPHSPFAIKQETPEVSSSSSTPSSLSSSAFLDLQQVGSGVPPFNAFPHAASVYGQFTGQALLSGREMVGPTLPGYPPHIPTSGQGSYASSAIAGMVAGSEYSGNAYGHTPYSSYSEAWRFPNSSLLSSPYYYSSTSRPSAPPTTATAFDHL

[12] = toxicity toward immortalized ovarian surface epithelium – cell-based, plate reader, dry powder samples, cytotoxicity control for PAX8 inhibitor project, dose response (AID 743045); format: functional
[13] = OVCAR-3 cell viability loss – plate reader, dry powder samples, PAX8 inhibitor project, dose response (AID 743044); format: functional, cell-based
[14] = general cell-killing toxicity readout – plate reader, dry powder samples, cytotoxicity control for PAX8 inhibitor project, dose response (AID 743021); format: functional, cell-based
[15] = IGROV1 cell killing – plate reader, dry powder samples, PAX8 inhibitor project, dose response (AID 743043); format: functional, cell-based; settings: IGROV-1
[16] = molecular target: Potassium channel subfamily K member 9 (Homo sapiens, UniProt Q9NPC2); assay: KCNK9 flux blockade, concentration-response – cell-based, FluxOR thallium flux, selectivity assay for TASK1 inhibitor project, SAR follow-up (AID 652211); format: functional;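 also: potency is for inhibitors of the channel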
Sequence of Potassium channel subfamily K member 9 (Q9NPC2 whole entry): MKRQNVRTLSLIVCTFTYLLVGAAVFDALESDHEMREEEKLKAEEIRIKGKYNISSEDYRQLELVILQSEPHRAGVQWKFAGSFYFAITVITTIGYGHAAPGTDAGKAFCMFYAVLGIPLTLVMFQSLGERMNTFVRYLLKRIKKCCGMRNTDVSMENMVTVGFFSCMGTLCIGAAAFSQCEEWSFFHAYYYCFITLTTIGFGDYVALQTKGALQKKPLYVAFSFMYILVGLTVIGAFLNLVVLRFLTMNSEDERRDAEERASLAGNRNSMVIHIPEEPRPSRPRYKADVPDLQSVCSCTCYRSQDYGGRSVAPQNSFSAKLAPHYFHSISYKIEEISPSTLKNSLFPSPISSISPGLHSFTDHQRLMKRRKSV

[17] = molecular target: Potassium channel subfamily K member 3 (Homo sapiens, UniProt O14649); assay: inhibition of human KCNK3 channel flux – CHO cells, FluxOR thallium flux, SAR follow-up (AID 652212); format: functional
Sequence of Potassium channel subfamily K member 3 (O14649 whole entry): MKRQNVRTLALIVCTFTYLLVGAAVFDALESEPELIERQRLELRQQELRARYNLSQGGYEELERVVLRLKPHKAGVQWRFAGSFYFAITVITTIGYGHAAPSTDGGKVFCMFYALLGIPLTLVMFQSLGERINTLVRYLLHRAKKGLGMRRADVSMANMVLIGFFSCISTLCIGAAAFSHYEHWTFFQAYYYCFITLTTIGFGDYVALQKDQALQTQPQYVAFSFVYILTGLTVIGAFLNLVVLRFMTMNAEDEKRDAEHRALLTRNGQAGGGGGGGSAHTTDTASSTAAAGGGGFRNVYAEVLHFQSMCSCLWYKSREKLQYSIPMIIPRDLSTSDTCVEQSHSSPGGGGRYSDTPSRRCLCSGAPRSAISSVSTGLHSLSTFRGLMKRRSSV

[18] = viability loss in HEK293T cells – cell-based, CellTiter-Glo luminescence, dry powder, set 6, cytotoxicity control, dose response (AID 651949); format: functional; settings: HEK293

Which AC50 (INS1) does the source give for CCC(O)C1CCN(C(=O)c2cc(COc3ccc4ncccc4c3)on2)CC1 (stereo unspecified) here?
The AC50 was 3.38 µM (active).

And the AC50 [1]?
Its AC50 is 10.9 µM (active).

What about the IC50 [2] of the same compound?
The IC50 was 0.294 µM (active).

And the AC50 [3]?
The AC50 was 1.75 µM (active).

And the IC50 [4]?
Its IC50 is 4.46 µM (active).

What about the IC50 [5] of the same compound?
Its IC50 is 0.571 µM (active).

What about the IC50 [6] of the same compound?
Its IC50 is > 80 µM (inactive).

And the AC50 [7]?
The AC50 was 0.505 µM (active).

With NC(=S)N/N=C/c1ccc(-c2ccc(Cl)c(Cl)c2)o1 as the compound, how does the EC50 [8] read?
The EC50 was > 67.5 µM (inactive).

What about the EC50 [9] of the same compound?
The EC50 was 0.983 µM (active).

What about the EC50 (cells) of the same compound?
The EC50 was > 67.5 µM (inactive).

And the EC50 [10]?
Its EC50 is > 60 µM (not active).

Which AC50 [11] does the source give for O=C(Nc1cccc(F)c1)N1C[C@@H]2N[C@H](C1)[C@@H]2c1ccc(-c2ccc(F)cc2)cc1 here?
Its AC50 is 18.5 µM (active).

What about the AC50 (Paired box protein Pax-8) of the same compound?
Its AC50 is 19.5 µM (active).

What about the AC50 [12] of the same compound?
Its AC50 is 34.3 µM (active).

What about the AC50 [13] of the same compound?
Its AC50 is 17.7 µM (active).

What about the AC50 [14] of the same compound?
Its AC50 is 65.7 µM (active).

What about the AC50 [15] of the same compound?
The AC50 was 22.4 µM (active).

Which IC50 [16] does the source give for COc1c(F)cccc1C(=O)Nc1cccc(NC(=O)c2cccc(C)c2)c1 here?
Its IC50 is 0.37 µM (active).

What about the IC50 [17] of the same compound?
The IC50 was 0.013 µM (active).

For c1ccc(CNCCSc2nnc(-c3ccccc3)o2)cc1, which AC50 [18] is on record?
Its AC50 is > 52 µM (inactive).
